# From paper PMC11206828, “Catalytic Differences between Flavohemoglobins of Giardia intestinalis and E. coli” (Pathogens, 2024)
# Entries after “also recorded” stand apart in the source; their conditions may differ. Where two headings read alike, the source gives them in different places.
# Assays:
# [1] = target: T1, Giardia flavohemoglobin (gFlHb) (Giardia intestinalis, UniProt E2RTZ4); assay: biochemical
# T1 sequence (E2RTZ4 1-458): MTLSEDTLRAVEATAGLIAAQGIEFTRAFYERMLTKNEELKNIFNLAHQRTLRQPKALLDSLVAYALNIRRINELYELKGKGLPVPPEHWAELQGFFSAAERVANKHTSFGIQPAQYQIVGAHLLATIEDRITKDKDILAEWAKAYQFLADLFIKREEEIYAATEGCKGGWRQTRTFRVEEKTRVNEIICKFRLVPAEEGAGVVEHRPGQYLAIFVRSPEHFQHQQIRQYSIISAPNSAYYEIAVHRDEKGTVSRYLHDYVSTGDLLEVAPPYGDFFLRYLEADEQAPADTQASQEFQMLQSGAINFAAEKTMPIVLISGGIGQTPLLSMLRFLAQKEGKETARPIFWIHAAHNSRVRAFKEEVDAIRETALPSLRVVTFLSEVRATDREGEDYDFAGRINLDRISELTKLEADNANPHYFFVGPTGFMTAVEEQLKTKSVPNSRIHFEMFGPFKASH
# Protocol: To determine NOD activity, Michaelis constant, and enzyme inhibition, rate assays were performed on a World Precision Instruments free radical analyzer (WPI, Sarasota, FL, USA) equipped with an NO-sensitive electrode and a temperature probe, connected to an analog digital converter controlled by Labscribe software, version 4 (iWorx, Dover, NH, USA).
# Assays were conducted on a 6 mL scale in cropped 50 mL Falcon tubes in a buffer containing 0.1 M Bis-Tris (pH 6.5) and 100 μM NADH. To minimize protein adhesion to the walls of the chamber, 0.25 mg/mL bovine serum albumin (BSA; Fisher Scientific, Ottawa, ON, Canada) was added. […] Reactions were run at 37 °C in a stirred cell block heater with a four-placed machined aluminum block that matched the taper of the Falcon tubes. With this block arrangement up to four assay solutions could be warmed to the desired temperature beforehand. Upon thermal equilibration to 37 °C, the NO donor compound PROLI-NONOate (Cayman Chemical, Ann Arbor, MI, USA) prepared in 10 mM NaOH was added; 2 moles of NO are released per mole of donor. At the peak of NO release, which occurred within several seconds, flavohemoglobin and FAD were added to a final concentration of 2 nM and 10 nM, respectively. NOD activity was measured as the initial rate of NO signal decrease over the first 15 to 30 s of the reaction. […] Rate data were fitted to the Michaelis–Menten equation by nonlinear regression using Graphpad Prism software, version 9.4.1 (Dotmatics, Boston MA, USA).
# (§1) The inhibitor was included in the assay solution before the addition of PROLI-NONOate. Inhibitors were also preincubated in the enzyme stock solutions at the same concentration. […] All inhibition experiments were done using the same enzyme preparations. Each assay at a particular concentration of inhibitor was measured in triplicate or more. […] To determine inhibition constants Ki, rate data obtained at different inhibitor concentrations were fit to the equation for non-competitive inhibition nonlinear regression (Equation (1)) using Graphpad Prism software. (1) v=Vmax/(Km,NO+[NO])1+[I]/Ki
# [2] = target: T2, E. coli flavohemoglobin (Hmp) (Escherichia coli, UniProt P24232); assay: Nitric oxide dioxygenase (NOD) inhibition assay, Hmp; format: biochemical; conditions: for Ki / TN (turnover number from the inhibition fit), Hmp: pH 6.5, 37 °C
# T2 sequence (P24232 whole entry): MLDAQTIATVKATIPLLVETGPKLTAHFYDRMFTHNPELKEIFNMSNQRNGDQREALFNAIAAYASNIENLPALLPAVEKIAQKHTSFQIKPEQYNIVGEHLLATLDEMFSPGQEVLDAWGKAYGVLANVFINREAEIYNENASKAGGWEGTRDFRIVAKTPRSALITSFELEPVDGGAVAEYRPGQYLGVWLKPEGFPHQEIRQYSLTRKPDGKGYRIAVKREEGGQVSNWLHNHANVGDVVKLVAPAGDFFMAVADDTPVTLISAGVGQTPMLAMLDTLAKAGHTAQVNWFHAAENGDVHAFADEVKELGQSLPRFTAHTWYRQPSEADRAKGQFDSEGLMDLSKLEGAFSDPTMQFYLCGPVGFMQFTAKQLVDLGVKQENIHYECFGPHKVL
# Protocol: as §1
# [3] = target: T1, Giardia flavohemoglobin (gFlHb); assay: NOD activity and Michaelis constants, gFlHb; format: biochemical; conditions: pH 6.5, 37 °C
# [4] = target: T2, E. coli flavohemoglobin (Hmp); set-up: method as in PMID 10777548; conditions: 37 °C and pH 7; cited from earlier work
# ferric gFlHb = ferric gFlHb (Giardia intestinalis, UniProt E2RTZ4); conditions: read-out: Binding constant KD, ferric gFlHb; optical titration, 0.1 M Bis-Tris pH 6.5, 3.5 μM flavohemoglobin, nitrite 0 to 750 μM
# Protocol: (§2) Titrations of ferric gFlHb and Hmp were performed in 0.1 M Bis-Tris buffer (BioShop, Burlington, ON, Canada) pH 6.5 on a Cary 400 Bio UV-visible spectrophotometer (Agilent Technologies, Mississauga, ON, Canada).
# ferric Hmp = ferric Hmp (Escherichia coli, UniProt P24232); conditions: optical titration, 0.1 M Bis-Tris pH 6.5
# Sequence of ferric Hmp (P24232 whole entry): as above
# Protocol: as §2
# [5] = target: T1, Giardia flavohemoglobin (gFlHb); conditions: cited from earlier work
# [6] = pH 6.5, 37 °C, 100 μM NADH, 1 μM NO
# [7] = pH 6.5, 37 °C, 100 μM NADH, 1 μM NO, imidazole and nitrite: Ki of the inhibitor-sensitive phase of a biphasic fit, read-out: Nitric oxide dioxygenase inhibition constant Ki, gFlHb
compound,measurement,setting,value
Cn1ccnc1 [1-methylimidazole],Ki,[1],1200 ± 300 µM
same,Ki,"[1]; Inhibition constant, gFlHb (bound), NOD inhibition, pH 6.5, 37 °C",> 1000 µM
same,"TN (turnover number from the inhibition fit), gFlHb",[1]; [6],25 ± 1 s⁻¹
same,Ki,"[2]; Inhibition constant, Hmp (bound), NOD inhibition",> 1000 µM
same,Ki,"[2]; Nitric oxide dioxygenase inhibition constant Ki, Hmp, 100 μM NADH, 1 μM NO, imidazole: Ki of the inhibitor-sensitive phase of a biphasic fit",1400 ± 250 µM
same,"TN (turnover number from the inhibition fit), Hmp","[2]; 100 μM NADH, 1 μM NO",38 ± 2 s⁻¹
"c1c[nH]cn1 [Imidazole, imidazole]","TN (turnover number from the inhibition fit), gFlHb",[1]; [6],22 ± 1 s⁻¹
same,Ki,[1]; [7],20 ± 6 µM
same,"TN (turnover number from the inhibition fit), Hmp","[2]; 100 μM NADH, 1 μM NO",33 ± 1 s⁻¹
same,Ki,"[2]; read-out: Nitric oxide dioxygenase inhibition constant Ki, Hmp, 100 μM NADH, 1 μM NO, imidazole: Ki of the inhibitor-sensitive phase of a biphasic fit",69 ± 10 µM
"NC(=O)C1=CN([C@@H]2O[C@H](COP(=O)(O)OP(=O)(O)OC[C@H]3O[C@@H](n4cnc5c(N)ncnc54)[C@H](O)[C@@H]3O)[C@@H](O)[C@H]2O)C=CC1 [NADH, nicotinamide adenine dinucleotide]","Michaelis constant KmNADH, gFlHb","[3]; NO held at 2 μM, NADH up to 200 μM",22 ± 4 µM
same,"Michaelis constants of Hmp (KmNO, KmNADH, KmO2)",[4],4.8 µM
"O=NO [Nitrite, nitrite]","TN (turnover number from the inhibition fit), gFlHb",[1]; [6],23 ± 1 s⁻¹
same,Ki,[1]; [7],32 ± 12 µM
same,Effect on NOD activity of Hmp,[2]; concentrations up to 2 mM,not significantly affected; also recorded: no significant effect
same,Kd,ferric gFlHb,180 ± 20 µM
same,Optical differences of Hmp in the presence of nitrite (KD),ferric Hmp,too small to permit any such calculation
O=O [oxygen],"Michaelis constants of Hmp (KmNO, KmNADH, KmO2)",[4],approximately 100 μM
same,Michaelis constant of gFlHb for oxygen,[5],22 ± 7 µM
nitric oxide [NO],"Michaelis constant KmNO, gFlHb","[3]; NADH held at 100 μM, NO up to 3 μM",0.65 ± 0.09 µM
same,"Michaelis constants of Hmp (KmNO, KmNADH, KmO2)",[4],0.28 µM
